Values after ≈ are worked out from the molar mass of the structure shown.
Tests used:
[1] = tested on: Bacillus subtilis; experiment: Antibacterial activity against Bacillus subtilis ATCC 6633 after 16 hrs; assay type: functional; details: ATCC 6633, 16 h
[2] = tested on: Staphylococcus aureus; experiment: Antibacterial activity against Staphylococcus aureus ATCC 6538 after 16 hrs; assay type: functional; details: ATCC 6538, 16 h

Row | MIC [1] | MIC [2] | Structure (SMILES)
1 | 2.5 µg/mL (≈ 14.8 µM) | 8.5 µg/mL (≈ 50.2 µM) | Cn1c(CC(=O)[O-])c[n+](C)c1N [AMINOZOOANEMONIN]
2 | 3.5 µg/mL (≈ 20.9 µM) | 5 µg/mL (≈ 29.9 µM) | O=C([O-])c1ccc[n+](CCO)c1 [PYRIDINEBETAINE A]
